From PubChem BioAssay AID256 (DTP/NCI, 2004)
Values joined by “and” are separate entries in the source; they are usually repeats but may differ in a detail not shown here. Equal values may be shown once. Toxic doses and inconclusive results are not listed.

System: CD2F1 mice, L1210 leukemia ip, survival T/C
Test: NCI In Vivo Anticancer Drug Screen. Data for tumor model L1210 Leukemia (intraperitoneal) in CD2F1 (CDF1) mice
Conditions: higher = longer survival
How it was run: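 Transplantable tumor in mice; compound-treated vs vehicle-treated groups. Read-out = treated/control ratio of the measured endpoint.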

[1] = endpoint: mean survival time, dose: 100.0 mg/kg/injection, schedule: Q01DX009 (ip), vehicle: saline with Tween-80
[2] = endpoint: mean survival time, dose: 200.0 mg/kg/injection, schedule: Q01DX009 (ip), vehicle: saline with Tween-80
[3] = endpoint: mean survival time, dose: 400.0 mg/kg/injection, schedule: Q01DX009 (ip), vehicle: saline with Tween-80

O=[N+]([O-])c1ccccc1N=C(c1ccccc1)N(O)c1ccccc1
T/C (endpoint: mean survival time, dose: 9.4 mg/kg/injection, schedule: Q01DX009 (ip), vehicle: saline with Tween-80): 101 % of control | T/C (endpoint: mean survival time, dose: 9.4 mg/kg/injection, schedule: Q04DX003 (ip), vehicle: saline with Tween-80): 98 % of control | T/C (endpoint: mean survival time, dose: 18.8 mg/kg/injection, schedule: Q01DX001 (ip), vehicle: saline): 101 % of control | T/C (endpoint: mean survival time, dose: 18.8 mg/kg/injection, schedule: Q01DX009 (ip), vehicle: saline with Tween-80): 104 % of control | T/C (endpoint: mean survival time, dose: 18.8 mg/kg/injection, schedule: Q04DX003 (ip), vehicle: saline with Tween-80): 100 % of control | T/C (endpoint: mean survival time, dose: 37.5 mg/kg/injection, schedule: Q01DX001 (ip), vehicle: saline): 102 % of control

CC[C@]1(O)C[C@H]2CN(CCc3c([nH]c4ccccc34)[C@@](C(=O)OC)(c3cc4c(cc3OC)N(C=O)[C@H]3[C@@](O)(C(=O)OC)[C@H](OC(C)=O)[C@]5(CC)C=CCN6CC[C@]43[C@@H]65)C2)C1
T/C (endpoint: mean survival time, dose: 0.08 mg/kg/injection, schedule: Q01DX009 (ip), vehicle: water): 121 % of control | T/C (endpoint: mean survival time, dose: 0.13 mg/kg/injection, schedule: Q01DX009 (ip), vehicle: water): 122 % of control | T/C (endpoint: mean survival time, dose: 0.2 mg/kg/injection, schedule: Q04DX003 (ip), vehicle: saline): 115 % of control | T/C (endpoint: mean survival time, dose: 0.2 mg/kg/injection, schedule: Q04DX003 (ip), vehicle: water): 106 % of control | T/C (endpoint: mean survival time, dose: 0.23 mg/kg/injection, schedule: Q04DX003 (ip), vehicle: water): 121 % of control and 98 % of control | T/C (endpoint: mean survival time, dose: 0.36 mg/kg/injection, schedule: Q01DX009 (ip), vehicle: water): 104 % of control | T/C (endpoint: mean survival time, dose: 0.39 mg/kg/injection, schedule: Q04DX003 (ip), vehicle: water): 118 % of control and 108 % of control | T/C (endpoint: mean survival time, dose: 0.4 mg/kg/injection, schedule: Q04DX003 (ip), vehicle: water): 106 % of control and 112 % of control | T/C (endpoint: mean survival time, dose: 0.5 mg/kg/injection, schedule: Q01DX009 (ip), vehicle: saline): 102 % of control | T/C (endpoint: mean survival time, dose: 0.5 mg/kg/injection, schedule: Q04DX004 (ip), vehicle: saline): 117 % of control and 120 % of control and 112 % of control | T/C (endpoint: mean survival time, dose: 0.65 mg/kg/injection, schedule: Q04DX003 (ip), vehicle: water): 112 % of control | T/C (endpoint: mean survival time, dose: 0.8 mg/kg/injection, schedule: Q04DX003 (ip), vehicle: water): 103 % of control and 110 % of control | T/C (endpoint: mean survival time, dose: 1.0 mg/kg/injection, schedule: Q01DX009 (ip), vehicle: saline): 68 % of control and 73 % of control | T/C (endpoint: mean survival time, dose: 1.0 mg/kg/injection, schedule: Q04DX004 (ip), vehicle: saline): 119 % of control | T/C (endpoint: mean survival time, dose: 1.08 mg/kg/injection, schedule: Q04DX003 (ip), vehicle: water): 118 % of control | T/C (endpoint: mean survival time, dose: 1.5 mg/kg/injection, schedule: Q04DX003 (ip), vehicle: saline): 121 % of control | T/C (endpoint: mean survival time, dose: 1.5 mg/kg/injection, schedule: Q04DX004 (ip), vehicle: saline): 119 % of control | T/C (endpoint: mean survival time, dose: 1.6 mg/kg/injection, schedule: Q04DX003 (ip), vehicle: saline): 120 % of control | T/C (endpoint: mean survival time, dose: 1.6 mg/kg/injection, schedule: Q04DX003 (ip), vehicle: water): 117 % of control and 108 % of control | T/C (endpoint: mean survival time, dose: 78.0 micrograms/kg/injection, schedule: Q01DX009 (ip), vehicle: water): 102 % of control | T/C (endpoint: mean survival time, dose: 130.0 micrograms/kg/injection, schedule: Q01DX009 (ip), vehicle: water): 108 % of control | T/C (endpoint: mean survival time, dose: 216.0 micrograms/kg/injection, schedule: Q01DX009 (ip), vehicle: water): 114 % of control | T/C (endpoint: mean survival time, dose: 360.0 micrograms/kg/injection, schedule: Q01DX009 (ip), vehicle: water): 124 % of control | T/C (endpoint: median survival time, dose: 62.5 micrograms/kg/injection, schedule: Q01DX009 (ip), vehicle: water): 115 % of control | T/C (endpoint: median survival time, dose: 125.0 micrograms/kg/injection, schedule: Q01DX009 (ip), vehicle: water): 121 % of control | T/C (endpoint: median survival time, dose: 1000.0 micrograms/kg/injection, schedule: Q01DX009 (ip), vehicle: water): 95 % of control

O=C(O)CCc1cccnc1
T/C [1]: 95 % of control | T/C [2]: 104 % of control | T/C [3]: 111 % of control

CCCCCCCN(CCCCCCC)CC(O)c1cc2ccc(Br)cc2c2cccnc12 (centres undefined)
T/C [1]: 95 % of control | T/C [2]: 92 % of control

CC(=O)OCC1OC(n2ccc(-n3cncn3)nc2=O)CC1N=[N+]=[N-] (centres undefined)
T/C (endpoint: median survival time, dose: 12.5 mg/kg/injection, schedule: Q01DX005 (ip), vehicle: saline with Tween-80): 101 % of control | T/C (endpoint: median survival time, dose: 25.0 mg/kg/injection, schedule: Q01DX005 (ip), vehicle: saline with Tween-80): 104 % of control | T/C (endpoint: median survival time, dose: 50.0 mg/kg/injection, schedule: Q01DX005 (ip), vehicle: saline with Tween-80): 98 % of control | T/C (endpoint: median survival time, dose: 100.0 mg/kg/injection, schedule: Q01DX005 (ip), vehicle: saline with Tween-80): 94 % of control | T/C (endpoint: median survival time, dose: 200.0 mg/kg/injection, schedule: Q01DX005 (ip), vehicle: saline with Tween-80): 93 % of control

CC(=O)OCC1OC(n2ncc3c(Cl)ncnc32)C(OC(C)=O)C1OC(C)=O (centres undefined)
T/C (endpoint: mean survival time, dose: 12.5 mg/kg/injection, schedule: Q01DX005 (ip), vehicle: water): 93 % of control | T/C (endpoint: mean survival time, dose: 25.0 mg/kg/injection, schedule: Q01DX005 (ip), vehicle: water): 93 % of control | T/C (endpoint: mean survival time, dose: 50.0 mg/kg/injection, schedule: Q01DX005 (ip), vehicle: water): 101 % of control | T/C (endpoint: mean survival time, dose: 100.0 mg/kg/injection, schedule: Q01DX005 (ip), vehicle: water): 112 % of control | T/C (endpoint: mean survival time, dose: 200.0 mg/kg/injection, schedule: Q01DX005 (ip), vehicle: water): 103 % of control

NNC(=O)c1ccc(-c2ccccc2)cc1
T/C (endpoint: mean survival time, dose: 1.56 mg/kg/injection, schedule: Q01DX009 (ip), vehicle: Klucel (hydroxypropylcellulose) (HPC)): 100 % of control | T/C (endpoint: mean survival time, dose: 3.13 mg/kg/injection, schedule: Q01DX009 (ip), vehicle: Klucel (hydroxypropylcellulose) (HPC)): 98 % of control | T/C (endpoint: mean survival time, dose: 6.25 mg/kg/injection, schedule: Q01DX009 (ip), vehicle: Klucel (hydroxypropylcellulose) (HPC)): 96 % of control | T/C (endpoint: mean survival time, dose: 12.5 mg/kg/injection, schedule: Q01DX009 (ip), vehicle: Klucel (hydroxypropylcellulose) (HPC)): 102 % of control | T/C (endpoint: mean survival time, dose: 25.0 mg/kg/injection, schedule: Q01DX009 (ip), vehicle: Klucel (hydroxypropylcellulose) (HPC)): 94 % of control | T/C (endpoint: mean survival time, dose: 25.0 mg/kg/injection, schedule: Q01DX009 (ip), vehicle: water): 108 % of control | T/C (endpoint: mean survival time, dose: 50.0 mg/kg/injection, schedule: Q01DX009 (ip), vehicle: water): 102 % of control | T/C (endpoint: mean survival time, dose: 100.0 mg/kg/injection, schedule: Q01DX009 (ip), vehicle: water): 100 % of control

CC1NCCCNCCCNC(C)c2cccc1n2 (centres undefined)
T/C (endpoint: mean survival time, dose: 50.0 mg/kg/injection, schedule: Q04DX002 (ip), vehicle: saline): 104 % of control

CC(c1ccc([N+](=O)[O-])cc1)C(O)c1ccccc1 (centres undefined)
T/C (endpoint: mean survival time, dose: 100.0 mg/kg/injection, schedule: Q04DX003 (ip), vehicle: saline with Tween-80): 111 % of control | T/C (endpoint: mean survival time, dose: 200.0 mg/kg/injection, schedule: Q04DX003 (ip), vehicle: saline with Tween-80): 103 % of control | T/C (endpoint: mean survival time, dose: 400.0 mg/kg/injection, schedule: Q04DX003 (ip), vehicle: saline with Tween-80): 102 % of control

COc1ccc(Cc2cncc3cc(O)c(OC)cc23)cc1O
T/C (endpoint: mean survival time, dose: 100.0 mg/kg/injection, schedule: Q01DX001 (ip), vehicle: saline): 102 % of control | T/C (endpoint: mean survival time, dose: 200.0 mg/kg/injection, schedule: Q01DX001 (ip), vehicle: saline): 96 % of control | T/C (endpoint: mean survival time, dose: 400.0 mg/kg/injection, schedule: Q01DX001 (ip), vehicle: saline): 96 % of control

CC(=O)Oc1c(C)[nH]ccc1=O
T/C (endpoint: mean survival time, dose: 25.0 mg/kg/injection, schedule: Q01DX009 (ip), vehicle: saline with Tween-80): 97 % of control | T/C (endpoint: mean survival time, dose: 25.0 mg/kg/injection, schedule: Q01DX009 (ip), vehicle: saline): 100 % of control | T/C (endpoint: mean survival time, dose: 50.0 mg/kg/injection, schedule: Q01DX009 (ip), vehicle: saline with Tween-80): 113 % of control and 107 % of control | T/C (endpoint: mean survival time, dose: 50.0 mg/kg/injection, schedule: Q01DX009 (ip), vehicle: saline): 100 % of control | T/C [1]: 118 % of control and 122 % of control | T/C (endpoint: mean survival time, dose: 100.0 mg/kg/injection, schedule: Q01DX009 (ip), vehicle: saline): 111 % of control | T/C [2]: 150 % of control | T/C (endpoint: mean survival time, dose: 200.0 mg/kg/injection, schedule: Q01DX009 (ip), vehicle: saline): 122 % of control | T/C [3]: 157 % of control

COc1ccc(N=N/N=c2\sc3cc(OC)ccc3n2C)cc1
T/C (endpoint: median survival time, dose: 7.5 mg/kg/injection, schedule: Q01DX005 (ip), vehicle: saline with Tween-80): 100 % of control | T/C (endpoint: median survival time, dose: 15.0 mg/kg/injection, schedule: Q01DX005 (ip), vehicle: saline with Tween-80): 105 % of control | T/C (endpoint: median survival time, dose: 30.0 mg/kg/injection, schedule: Q01DX005 (ip), vehicle: saline with Tween-80): 108 % of control | T/C (endpoint: median survival time, dose: 42.5 mg/kg/injection, schedule: Q01DX005 (ip), vehicle: saline with Tween-80): 102 % of control | T/C (endpoint: median survival time, dose: 60.0 mg/kg/injection, schedule: Q01DX005 (ip), vehicle: saline with Tween-80): 105 % of control | T/C (endpoint: median survival time, dose: 85.0 mg/kg/injection, schedule: Q01DX005 (ip), vehicle: saline with Tween-80): 102 % of control | T/C (endpoint: median survival time, dose: 120.0 mg/kg/injection, schedule: Q01DX005 (ip), vehicle: saline with Tween-80): 104 % of control | T/C (endpoint: median survival time, dose: 170.0 mg/kg/injection, schedule: Q01DX005 (ip), vehicle: saline with Tween-80): 100 % of control
